Assay results reported in patent US4520031A, “Method for reducing toxic effects of methyl-glyoxal bis-guanylhydrazone” (priority 1982, dated 1985).
Where two headings read alike, the source gives them in different places.

Columns and labels:
Esophagus = experiment: Response to weekly MGBG, esophagus; type: in vivo, human
Protocol: During the course of the clinical experiments, MGBG was administered to patients in approximately weekly doses ranging from 250 to 1000 mg per square meter.
Pre-treatment minimum evaluation included chest roentgenogram, liver and renal function tests, complete blood count with differential and platelet count and serum glucose. Pre-treatment performance status was recorded for each patient in accordance with SWOG criteria.
This intravenous infusion is administered to the patient over a period of time not less than 30 minutes. Accordingly, an approximation of the patient's surface area in square meters is calculated using a height and weight to surface area nomogram (listed in Documenta Geigy, Scientific Tables (1970) p. 537) and this factor is applied in determining the appropriate amount of MGBG salt to be added to the infusion solution. […] In the absence of toxicity, subsequent doses of MGBG are increased by 100 mg/m^2 over the previous week's dose. If patients experience moderate or severe reversible toxicity, the dose is reduced by 100 mg/m^2 relative to the previous week's dose. No change in dosage strength is made for mild toxicity.

[1] = cited from earlier work; for Penile inflammation: % of male population
[2] = Group I, less than 100 mg/m^2/day
[3] = Group II, 100 to 125 mg/m^2/day
[4] = Group III, 126 to 160 mg/m^2/day

SMILES: CC(C=NNC(=N)N)=NNC(=N)N [MGBG, 1,1'-[(methylethanediylidene)dinitrilo] diguanidine]
- CR + PR (Esophagus; 2 evaluable patients): 1
- No Response (Esophagus; 2 evaluable patients): 1
- PR (Partial response) (Esophagus; 2 evaluable patients): 1
- Duration Months (Esophagus; duration of CR + PR): 3 Months
- Acroerythema (number of patients) [1, 2]: 0 patients
- Diarrhea [1, 2]: 40%
- Diarrhea (number of patients) [1, 2]: 4 patients
- Died during treatment [1, 2]: 42%
- Died during treatment (number of patients) [1, 2]: 5 patients
- Erythema Nodosum [1, 2]: 10%
- Erythema Nodosum (number of patients) [1, 2]: 1 patients
- Mucosal involvement [1, 2]: 80%
- Mucosal involvement (number of patients) [1, 2]: 8 patients
- Penile inflammation (number of patients) [1, 2]: 0 patients
- Vasculitis [1, 2]: 40%
- Vasculitis (number of patients) [1, 2]: 4 patients
- Weight Loss (Median %) [1, 2]: 0%
- Penile inflammation [1, 3]: 25%
- Acroerythema [1, 3]: 17%
- Acroerythema (number of patients) [1, 3]: 4 patients
- Diarrhea [1, 3]: 41%
- Diarrhea (number of patients) [1, 3]: 6 patients
- Died during treatment [1, 3]: 62%
- Died during treatment (number of patients) [1, 3]: 10 patients
- Erythema Nodosum [1, 3]: 9%
- Erythema Nodosum (number of patients) [1, 3]: 2 patients
- Mucosal involvement [1, 3]: 98%
- Mucosal involvement (number of patients) [1, 3]: 15 patients
- Penile inflammation (number of patients) [1, 3]: 3 patients
- Vasculitis [1, 3]: 25%
- Vasculitis (number of patients) [1, 3]: 5 patients
- Weight Loss (Median %) [1, 3]: 6%
- Penile inflammation [1, 4]: 23%
- Acroerythema [1, 4]: 17%
- Acroerythema (number of patients) [1, 4]: 6 patients
- Diarrhea [1, 4]: 42%
- Diarrhea (number of patients) [1, 4]: 15 patients
- Died during treatment [1, 4]: 30%
- Died during treatment (number of patients) [1, 4]: 11 patients
- Erythema Nodosum [1, 4]: 12%
- Erythema Nodosum (number of patients) [1, 4]: 3 patients
- Mucosal involvement [1, 4]: 91%
- Mucosal involvement (number of patients) [1, 4]: 31 patients
- Penile inflammation (number of patients) [1, 4]: 4 patients
- Vasculitis [1, 4]: 25%
- Vasculitis (number of patients) [1, 4]: 8 patients
- Weight Loss (Median %) [1, 4]: 10%
- Acroerythema ([1]; Group IV, over 160 mg/m^2/day): 20%
- Acroerythema (number of patients) ([1]; Group IV, over 160 mg/m^2/day): 2 patients
- Diarrhea ([1]; Group IV, over 160 mg/m^2/day): 20%
- Diarrhea (number of patients) ([1]; Group IV, over 160 mg/m^2/day): 2 patients
- Died during treatment ([1]; Group IV, over 160 mg/m^2/day): 83%
- Died during treatment (number of patients) ([1]; Group IV, over 160 mg/m^2/day): 10 patients
- Erythema Nodosum (number of patients) ([1]; Group IV, over 160 mg/m^2/day): 0 patients
- Mucosal involvement ([1]; Group IV, over 160 mg/m^2/day): 100%
- Mucosal involvement (number of patients) ([1]; Group IV, over 160 mg/m^2/day): 10 patients
- Penile inflammation (number of patients) ([1]; Group IV, over 160 mg/m^2/day): 0 patients
- Vasculitis ([1]; Group IV, over 160 mg/m^2/day): 20%
- Vasculitis (number of patients) ([1]; Group IV, over 160 mg/m^2/day): 2 patients
- Weight Loss (Median %) ([1]; Group IV, over 160 mg/m^2/day): 5%
- incidence of toxicity under other schedules ([1]; continuous 24-hour infusion, very high initial dose then lower maintenance doses, versus daily dosing): neither of these regimens altered the incidence of associated toxicity
